The test system of one data set is Proteus mirabilis 18. In words: In vitro antibacterial activity, two-fold agar-plate dilution method (MIC). The format is cell-based. Particulars: HI-agar, 37° C., 20 hours, read-out: MIC (minimal inhibitory concentration). As to the method:
(§1) In vitro antibacterial activity was determined by the two-fold agar-plate dilution method as described below.
(§2) One loopful of an overnight culture of each test strain in Trypticase-soy broth (10^8 viable cells per ml) was streaked on heart infusion agar (HI-agar) containing graded concentrations of representative test compound, and the minimal inhibitory concentration (MIC) was expressed in terms of μg/ml after incubation at 37° C. for 20 hours.

The subject of another data set is Proteus vulgaris 2. The description is as above. The format is cell-based. Particulars: HI-agar, 37° C., 20 hours, read-out: MIC (minimal inhibitory concentration). As to the method: as §1, §2
Data set [1] in a line: Urinary excretion in rats after oral administration. In kind it is in vivo. The conditions noted are these: rat, urine, 20 mg/kg, bioassay, read-out: Urinary recovery in 24 hours (%).
Method: Urine of rats was collected with a urine collector at 0 to 6, and 6 to 24 hours after oral administration of 20 mg/kg of the test antibiotic. The antibiotic levels in the urine samples were bioassayed with the standard solution prepared with M/15 phosphate buffer (pH 7.0) and the urinary recovery in 24 hours was calculated.
A further data set can be described thus: in vivo. Particulars: rat, po, 20 mg/kg.

Where only a bound is given, the exact number is not on record here.

We go through one compound from patent publication US4631274A, “Halovinyl cephem compounds” (Fujisawa Pharmceutical Co., Ltd., priority 1984, dated 1986).

Method for in vivo: Rats anesthetized with pentobarbital were fixed in supine position, and a polyethylene cannula was inserted into the bile duct. Bile samples were collected at 0 to 3, 3 to 6, and 6 to 24 hours after oral administration of 20 mg/kg of the test antibiotic. The antibiotic levels in the bile samples were bioassayed with the standard solution prepared with M/15 phosphate buffer (pH 7.0) and the biliary recovery in 24 hours were calculated.

Turning to `Nc1nc(/C(=N/OCC(=O)O)C(=O)NC2C(=O)N3C(C(=O)O)=C(/C=C/Cl)CSC23)cs1` (stereo not drawn) [A, 7-[2-Carboxymethoxyimino-2-(2-aminothiazol-4-yl)acetamido]-3-[(E)-2-chlorovinyl]-3-cephem-4-carboxylic acid (syn isomer)], the MIC in the data set on Proteus mirabilis 18 and in the data set on Proteus vulgaris 2 was less than 0.025 µg/mL in each case. The dose excreted at 24 h in data set [1] amounted to 51.1%; in “in vivo”, 24.2%.
